Experimental data taken from PubChem BioAssay AID449760 (The Scripps Research Institute Molecular Screening Center, 2010).
Where “and” joins values, the source holds several entries; their conditions need not be identical. Equal entries are not always repeated. Calls of active or inactive are those of the source. How the calls were made is not given here.

What follows are compounds tested on NIH 3T3 STAT1-luciferase reporter, IFNg-stimulated, luminescence (assay: boost of IFNg-driven STAT1 luciferase signal – cell-based, luminescence, NIH 3T3, assay provider, late-stage follow-up (AID 449760)). Conditions: at 10 µM; hits give high values.

Structure (SMILES)	fold change vs IFNg
CCOC(=O)/C(C#N)=C/c1cc(C)n(-c2ccccc2)c1C	0.028 (inactive)
CCN(CC)c1ccc2cc(C(=O)Nc3ccccn3)c(=O)oc2c1	0.41 (inactive)
N#C/C(=C\c1ccc(N2CCOCC2)o1)c1nc2ccccc2[nH]1	0.94 (inactive)
Cc1ccc(C(=O)Nc2nc3ccccc3s2)s1	1.22 (inactive)
Cc1cc(-c2ccc(F)cc2)n2ncc(-c3ccccc3)c2n1	0.09 (inactive)
COc1ccc(-c2cc(C)nc3c(-c4ccccc4)cnn23)cc1	0.36 (inactive) and 0.19 (inactive)
COc1ccc2[nH]c3c(c2c1)CCn1c-3nc2ccccc2c1=O	0.94 (inactive)
O=C(Nc1nc2ccccc2s1)c1cc2ccccc2s1	1.02 (inactive)
CC(=O)NC(=S)Nc1sc2c(c1C#N)CCCCC2	0.45 (inactive)
O=C(/C=C/Nc1ccccc1F)c1ccc(Br)cc1	0.87 (inactive)
Cc1nnc(SCC(=O)Nc2ccc(-c3nc4ccccc4s3)cc2)s1	1 (inactive)
COc1ccc(-c2csc(N3C(=O)CNC3=S)n2)cc1	1.19 (inactive)
